Laboratory results taken from patent US10253002B2, “Compounds and methods of treating infections” (Neoculi Pty Ltd., priority 2013, dated 2019).
Converted amounts (≈) assume the structure as drawn. Read-outs that look alike come from different tables or passages of the source.

What was measured:
VRE = test: Broth microdilution MIC, Example 7 (NCL812 and analogues); type: cell-based, Enterococcus spp.; conditions: Enterococcus, VRE
Procedure, shortened: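 MICs in μg/ml were read as growth inhibition by eye, checked at 600 nm absorbance against drug-free wells, following CLSI broth microdilution. Strains: two MRSA, two VRE; duplicates, repeated once more when results diverged beyond one dilution step.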

Streptococcus pneumoniae = conditions: control strain Streptococcus pneumoniae ATCC 49619; cited from earlier work
[1] = test system: Staphylococcus pseudintermedius isolates (MSSP and MRSP); test: MIC (CLSI), Example 6; type: cell-based
Procedure: Anti-staphylococcal compounds were then tested against all 23 isolates and minimum inhibitory concentrations (MIC) were determined according to standard protocols. After the MICs were determined, the minimum bactericidal concentrations were performed to determine if these compounds are bacteriostatic or bacteriocidal.

[2] = Staphylococcus pseudintermedius isolates

Compound `CC1(C)S[C@@H]2[C@H](NC(=O)[C@H](N)c3ccccc3)C(=O)N2[C@H]1C(=O)O` [Ampicillin] has an MIC (VRE; 24 h, read-out: MIC (μg/ml) at 24 hours, VRE 1, isolate VRE 1, 24 hours, 1st and 2nd replicate rows) of 0.5 µg/mL (≈ 1.43 µM), an MIC (VRE; 24 h, read-out: MIC (μg/ml) at 24 hours, VRE 2, isolate VRE 2, 24 hours, 1st and 2nd replicate rows) of 0.25 µg/mL (≈ 0.715 µM) and an MIC (VRE; VRE 002 [H12c], Phase I, 1st, read-out: MIC) of 1 µg/mL (≈ 2.86 µM). For the same compound, the MIC (VRE; VRE 002 [H12c], Phase I, 2nd, read-out: MIC) was 1 µg/mL (≈ 2.86 µM), the MIC (VRE; VRE 002 [H12c], Phase II, 1st, read-out: MIC) was 0.25 µg/mL (≈ 0.715 µM) and the MIC (VRE; VRE 002 [H12c], Phase II, 2nd, read-out: MIC) was 0.25 µg/mL (≈ 0.715 µM). The MIC (VRE; VRE 003 [H14t], Phase I, 1st, read-out: MIC) was 0.5 µg/mL (≈ 1.43 µM), the MIC (VRE; VRE 003 [H14t], Phase I, 2nd, read-out: MIC) was 0.5 µg/mL (≈ 1.43 µM) and the MIC (VRE; VRE 003 [H14t], Phase II, 1st, read-out: MIC) was 0.25 µg/mL (≈ 0.715 µM). It also gave an MIC (VRE; VRE 003 [H14t], Phase II, 2nd, read-out: MIC) of 0.25 µg/mL (≈ 0.715 µM), an MIC (VRE; VRE 004 [H16c], Phase I, 1st, read-out: MIC) of 1 µg/mL (≈ 2.86 µM) and an MIC (VRE; VRE 004 [H16c], Phase I, 2nd, read-out: MIC) of 1 µg/mL (≈ 2.86 µM). It also gave an MIC (VRE; VRE 004 [H16c], Phase II, 1st, read-out: MIC) of 0.25 µg/mL (≈ 0.715 µM), an MIC (VRE; VRE 004 [H16c], Phase II, 2nd, read-out: MIC) of 0.25 µg/mL (≈ 0.715 µM) and an MIC (VRE; VRE 005 [H17c], Phase I, 1st, read-out: MIC) of 1 µg/mL (≈ 2.86 µM). The MIC (VRE; VRE 005 [H17c], Phase I, 2nd, read-out: MIC) was 1 µg/mL (≈ 2.86 µM), the MIC (VRE; VRE 005 [H17c], Phase II, 1st, read-out: MIC) was 0.25 µg/mL (≈ 0.715 µM) and the MIC (VRE; VRE 005 [H17c], Phase II, 2nd, read-out: MIC) was 0.25 µg/mL (≈ 0.715 µM). For the same compound, the MIC (VRE; VRE 006 [H19t], Phase I, 1st, read-out: MIC) was 1 µg/mL (≈ 2.86 µM), the MIC (VRE; VRE 006 [H19t], Phase I, 2nd, read-out: MIC) was 1 µg/mL (≈ 2.86 µM) and the MIC (VRE; VRE 006 [H19t], Phase II, 1st, read-out: MIC) was 0.25 µg/mL (≈ 0.715 µM). The MIC (VRE; VRE 006 [H19t], Phase II, 2nd, read-out: MIC) was 0.25 µg/mL (≈ 0.715 µM), the MIC (VRE; VRE 007 [H23c], Phase I, 1st, read-out: MIC) was 1 µg/mL (≈ 2.86 µM) and the MIC (VRE; VRE 007 [H23c], Phase I, 2nd, read-out: MIC) was 1 µg/mL (≈ 2.86 µM). For the same compound, the MIC (VRE; VRE 007 [H23c], Phase II, 1st, read-out: MIC) was 0.25 µg/mL (≈ 0.715 µM), the MIC (VRE; VRE 007 [H23c], Phase II, 2nd, read-out: MIC) was 0.25 µg/mL (≈ 0.715 µM) and the MIC (VRE; VRE 008 [H16c(dc)], Phase I, 1st, read-out: MIC) was 1 µg/mL (≈ 2.86 µM). The MIC (VRE; VRE 008 [H16c(dc)], Phase I, 2nd, read-out: MIC) was 1 µg/mL (≈ 2.86 µM), the MIC (VRE; VRE 008 [H16c(dc)], Phase II, 1st, read-out: MIC) was 1 µg/mL (≈ 2.86 µM) and the MIC (VRE; VRE 008 [H16c(dc)], Phase II, 2nd, read-out: MIC) was 1 µg/mL (≈ 2.86 µM). The MIC (VRE; VRE 009 [H25c], Phase I, 1st, read-out: MIC) was 1 µg/mL (≈ 2.86 µM), the MIC (VRE; VRE 009 [H25c], Phase I, 2nd, read-out: MIC) was 1 µg/mL (≈ 2.86 µM) and the MIC (VRE; VRE 009 [H25c], Phase II, 1st, read-out: MIC) was 1 µg/mL (≈ 2.86 µM). The MIC (VRE; VRE 009 [H25c], Phase II, 2nd, read-out: MIC) was 1 µg/mL (≈ 2.86 µM), the MIC (VRE; VRE 010 [H26c(w)], Phase I, 1st, read-out: MIC) was 2 µg/mL (≈ 5.72 µM) and the MIC (VRE; VRE 010 [H26c(w)], Phase I, 2nd, read-out: MIC) was 2 µg/mL (≈ 5.72 µM). The MIC (VRE; VRE 010 [H26c(w)], Phase II, 1st, read-out: MIC) was 1 µg/mL (≈ 2.86 µM), the MIC (VRE; VRE 010 [H26c(w)], Phase II, 2nd, read-out: MIC) was 1 µg/mL (≈ 2.86 µM) and the MIC (VRE; VRE 011 [H26c(dc)], Phase I, 1st, read-out: MIC) was 1 µg/mL (≈ 2.86 µM). It also gave an MIC (VRE; VRE 011 [H26c(dc)], Phase I, 2nd, read-out: MIC) of 1 µg/mL (≈ 2.86 µM), an MIC (VRE; VRE 011 [H26c(dc)], Phase II, 1st, read-out: MIC) of 0.5 µg/mL (≈ 1.43 µM) and an MIC (VRE; VRE 011 [H26c(dc)], Phase II, 2nd, read-out: MIC) of 0.5 µg/mL (≈ 1.43 µM). It also gave an MIC (VRE; VRE 012 [H35t], Phase I, 1st, read-out: MIC) of 0.5 µg/mL (≈ 1.43 µM), an MIC (VRE; VRE 012 [H35t], Phase I, 2nd, read-out: MIC) of 0.5 µg/mL (≈ 1.43 µM) and an MIC (VRE; VRE 012 [H35t], Phase II, 1st, read-out: MIC) of 0.25 µg/mL (≈ 0.715 µM). For the same compound, the MIC (VRE; VRE 012 [H35t], Phase II, 2nd, read-out: MIC) was 0.5 µg/mL (≈ 1.43 µM), the MIC (VRE; VRE 013 [H37c(w)], Phase I, 1st, read-out: MIC) was 2 µg/mL (≈ 5.72 µM) and the MIC (VRE; VRE 013 [H37c(w)], Phase I, 2nd, read-out: MIC) was 2 µg/mL (≈ 5.72 µM). For the same compound, the MIC (VRE; VRE 013 [H37c(w)], Phase II, 1st, read-out: MIC) was 1 µg/mL (≈ 2.86 µM), the MIC (VRE; VRE 013 [H37c(w)], Phase II, 2nd, read-out: MIC) was 1 µg/mL (≈ 2.86 µM) and the MIC (VRE; VRE 014 [H37c(g)], Phase I, 1st, read-out: MIC) was 1 µg/mL (≈ 2.86 µM). The MIC (VRE; VRE 014 [H37c(g)], Phase I, 2nd, read-out: MIC) was 1 µg/mL (≈ 2.86 µM), the MIC (VRE; VRE 014 [H37c(g)], Phase II, 1st, read-out: MIC) was 1 µg/mL (≈ 2.86 µM) and the MIC (VRE; VRE 014 [H37c(g)], Phase II, 2nd, read-out: MIC) was 1 µg/mL (≈ 2.86 µM). For the same compound, the “Acceptable MIC range for Ampicillin” value (Streptococcus pneumoniae) was 0.06 to 0.25 µg/mL, the MIC50 [1, 2] was 32 µg/mL (≈ 91.6 µM) and the MIC90 [1, 2] was 128 µg/mL (≈ 366 µM). It also gave an MIC range [1, 2] of 0.1 to 128 µg/mL, an MIC ([1]; Staphylococcus pseudintermedius, Staphylococcus pseudintermedius isolates, read-out: MIC mode) of 128 µg/mL (≈ 366 µM) and an MIC ([1]; Staphylococcus pseudintermedius, isolate S5P5, read-out: MIC) of 16 µg/mL (≈ 45.8 µM). It also gave an MIC ([1]; Staphylococcus pseudintermedius, isolate S6P6, read-out: MIC) of 64 µg/mL (≈ 183 µM), an MIC ([1]; Staphylococcus pseudintermedius, isolate S9P9, read-out: MIC) of 32 µg/mL (≈ 91.6 µM) and an MIC ([1]; Staphylococcus pseudintermedius, isolate S10P10, read-out: MIC) of 64 µg/mL (≈ 183 µM). The MIC ([1]; Staphylococcus pseudintermedius, isolate S12P12, read-out: MIC) was 32 µg/mL (≈ 91.6 µM), the MIC ([1]; Staphylococcus pseudintermedius, isolate S13P13, read-out: MIC) was 0.25 µg/mL (≈ 0.715 µM) and the MIC ([1]; Staphylococcus pseudintermedius, isolate S14P14, read-out: MIC) was 1 µg/mL (≈ 2.86 µM). The MIC ([1]; Staphylococcus pseudintermedius, isolate S15P15, read-out: MIC) was 4 µg/mL (≈ 11.4 µM), the MIC ([1]; Staphylococcus pseudintermedius, isolate S16P16, read-out: MIC) was 0.25 µg/mL (≈ 0.715 µM) and the MIC ([1]; Staphylococcus pseudintermedius, isolate S17P17, read-out: MIC) was 1 µg/mL (≈ 2.86 µM). The MIC ([1]; Staphylococcus pseudintermedius, isolate S18P18, read-out: MIC) was 4 µg/mL (≈ 11.4 µM), the MIC ([1]; Staphylococcus pseudintermedius, isolate S19P19, read-out: MIC) was 0.5 µg/mL (≈ 1.43 µM) and the MIC ([1]; Staphylococcus pseudintermedius, isolate S20P20, read-out: MIC) was 4 µg/mL (≈ 11.4 µM). The MIC ([1]; Staphylococcus pseudintermedius, isolate S21P21, read-out: MIC) was 0.1 µg/mL (≈ 0.286 µM), the MIC ([1]; Staphylococcus pseudintermedius, isolate S22P22, read-out: MIC) was 8 µg/mL (≈ 22.9 µM) and the MIC ([1]; Staphylococcus pseudintermedius, isolate S23P23, read-out: MIC) was 32 µg/mL (≈ 91.6 µM). The MIC ([1]; isolate S1P1) was 128 µg/mL (≈ 366 µM), the MIC ([1]; isolate S3P3) was 128 µg/mL (≈ 366 µM) and the MIC ([1]; isolate S4P4) was 128 µg/mL (≈ 366 µM). For the same compound, the MIC ([1]; isolate S7P7) was 128 µg/mL (≈ 366 µM), the MIC ([1]; isolate S8P8) was 128 µg/mL (≈ 366 µM) and the MIC ([1]; isolate S11P11) was 128 µg/mL (≈ 366 µM).
